Data from patent US9938240B2, “Fluorinated derivatives of 3-hydroxypyridin-4-ones” (Apotex Technologies Inc., priority 2009, dated 2018).

How the values were obtained:
[1] = test system: SH-SY5Y human neuroblastoma cells
Outline: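 SH-SY5Y cells were treated with a range of compound concentrations, with or without 50 μM H2O2, in serum-free medium for 16–22 h. Viability was measured by MTT and expressed relative to cells receiving neither H2O2 nor compound. Runs without H2O2 assessed cytotoxicity.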

[2] = Benzoic acid hydroxylation assay; settings: benzoic acid 1 mM, H2O2 6 mM, FeCl3 30 μM, chelator 30 μM, pH 7.4, up to 81 h
From the text: Benzoic acid is a hydroxyl radical scavenger and reacts with hydroxyl radical to give 2-hydroxy, 3-hydroxy and 4-hydroxybenzoic acids. The benzoic acid hydroxylation assay is a chemical assay designed to detect damage caused by hydroxyl radical (Dean and Nicholson, Free Radical Research 1994, vol 20, 83-101). For example, deferiprone suppresses the formation of hydroxybenzoic acids in the presence of iron salts and hydrogen peroxide, while EDTA and iron salts allow such hydroxylation reactions to take place.
This screening assay involves the use of iron salt, benzoic acid, hydrogen peroxide and the chelator and measures the ability of the chelator to inhibit the formation of hydroxybenzoate as an indicator to prevent hydroxyl radical formation in living system.
Briefly, this procedure is based on the ability of hydroxyl radicals to hydroxylate benzoate to give 2-, 3- and 4-hydroxylated benzoic acid products. Benzoic acid (1 mM) is incubated over time up to 81 h at room temperature in the dark in 10 mM phosphate buffer (pH 7.4) with 6 mM hydrogen peroxide, ferric chloride (30 μM) and the Fe chelator (30 μM). HPLC is the method of choice used to monitor and quantify the amount of 2-, 3- and 4-hydroxylated products formed over time in the reaction mixture, and can be verified against authentic benzoic acid and its hydroxylated products via their respective retention times and areas under curve. In addition, several controls are used: (i) a control without added Fe stock solution and Fe chelator; (ii) a control without added Fe chelator; (iii) EDTA as positive control; and (iv) deferiprone as negative control. The Fe-EDTA system is a hydroxyl radical generator and is known to promote hydroxylation of benzoic acid.

[3] = Stoichiometry of Fe-complexes by Job's method; assay type: physicochemical; settings: 0.1 M MOPS pH 7.4, absorbance at 458 nm
Procedure: In a typical experiment Fe-Apo7053 complex solutions were prepared by mixing a stock solution of Fe^2+ (atomic absorption standard, 989 μg/mL in 1 wt % HCl, Aldrich) and a stock solution of Apo7053 (7.88×10^−3 M in 0.1 M MOPS, pH 7.4). Twelve sample solutions were prepared. While the sum of the total iron concentration ([iron]total) and the total ligand concentration ([L]total) in each of the 12 sample solutions were kept constant (8.00×10^−4 M), the molar fraction of the ligand, α (α=[L]total/([L]total+[iron]total)), for the 12 sample solutions were different, and were prepared as 0.0, 0.1, 0.2, 0.3, 0.4, 0.5, 0.6, 0.7, 0.75, 0.8, 0.9 and 1.0, respectively. The total volume for each of the 12 sample solutions was 5 mL, using MOPS (0.1 M, pH 7.4) as the solvent. The pH of the 12 solutions were adjusted to pH 7.4 with NaOH. The sample solutions were vortexed at rt for 2.5 h, and then stayed at rt overnight. The sample solutions were centrifuged at 4000 rpm for 15 min. The UV-Vis spectrum was recorded at 22° C. for each of the 12 solutions.
A Job's plot was created with the absorbance at 458 nm as the y-axis and α as the x-axis. A maximum absorbance was found at α=0.75, which corresponds to an iron:ligand ratio of 1:3 in the complexes.

[4] = test system: human neuroblastoma MC-65 cells; test: cells
Outline: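 MC-65 cells (conditional Aβ fusion-protein expression, TET-repressed) were washed free of TET and FBS, then exposed to compound ~48 h in serum-free medium without or with 1 μg/mL TET.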

Cc1c(O)c(=O)c(C(N(C)C)C(F)(F)F)cn1C (centres unmarked) [Apo7053, 5-[1-(dimethylamino)-2,2,2-trifluoroethyl]-3-hydroxy-1,2-dimethylpyridin-4(1H)-one]
CC2 (cytotoxic concentration) ([1]; H2O2-treated cells, viability below 80%): >640 µM
CC1 (cytotoxic concentration) ([1]; absence of H2O2, viability below 80%): 2.2 µM
hydroxylation of benzoic acid by Fe chelate [2]: do not promote the hydroxylation of benzoic acid
molar fraction of ligand α at maximum absorbance (Job's plot) [3]: 0.75
EC100 ([4]; Homo sapiens, MC65, 48 h, read-out: EC100 (maximum effective concentration)): 10 µM
minimal effective concentration ([4]; Homo sapiens, MC65, 48 h, read-out: TH (threshold protective concentration)): 0.1 µM
CC2 (cytotoxic concentration) ([4]; MC-65, cultured without tetracycline, viability below 80%): 20 µM
CC1 (cytotoxic concentration) ([4]; MC-65, presence of TET, viability below 80%): 40 µM
